The text below walks through data of patent EP0911319A1, “Malonic acid based matrix metalloproteinase inhibitors” (Roche Diagnostics GmbH, priority 1997, dated 1999).

Read-outs that look alike come from different tables or passages of the source.

The target of the experiment is catalytic domain (Met80-Gly242) of human neutrophil collagenase (Homo sapiens, UniProt P22894). The class given is biochemical. The following applies: towards HNC, 8 nM enzyme, 10 µM DNP-Pro-Leu-Gly-Leu-Trp-Ala-D-Arg-NH2, 50 mM Tris/HCl pH 7.6, 25°C.
Sequence of catalytic domain (Met80-Gly242) of human neutrophil collagenase (P22894 100-262): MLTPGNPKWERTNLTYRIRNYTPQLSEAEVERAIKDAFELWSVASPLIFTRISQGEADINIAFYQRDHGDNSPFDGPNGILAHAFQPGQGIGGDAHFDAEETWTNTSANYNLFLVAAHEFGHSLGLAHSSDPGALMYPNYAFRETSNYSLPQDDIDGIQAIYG

Experimental: Determination of the inhibitory effect (enzyme assay)
In order to determine the inhibition of MMPs, for example HNC, the catalytic domain (isolation and purification see example 1) is incubated with inhibitors having various concentrations. […] The synthetic MMP substrate is a heptapeptide which is coupled, at the C-terminus, with DNP (Dinitrophenol). Said DNP residue quenches by steric hindrance the fluorescence of the adjacent tryptophane of the heptapeptide. After cleavage of a tripeptide which includes the DNP group, the tryptophane fluorescence increases. […] The reaction was started directly by giving the substrate into the solution. The cleavage of the fluorogenic substrate was followed by fluorescence spectroscopy with an excitation and emission wavelength of 280 and 350 nm, respectively. The IC50 value was calculated as the inhibitor concentration, which is necessary to decrease the velocity of the reaction to the half in comparison to the reaction without inhibitor.

The IC50 is the concentration that inhibits the measured activity by half. With `O=C(NO)C(Cc1ccccc1)C(=O)NCCCc1ccccc1` (racemic) [Example 4, (±)-HONH-Mal(Bn)-NH-(CH2)3-C6H5], for the setting “read-out: IC50”, the half-maximal inhibitory concentration (IC50) is 640 nM.

`O=C(NO)C(CCc1ccccc1)C(=O)NCCCc1ccccc1` (racemic) [Example 3, (±)-HONH-Mal(CH2CH2-C6H5)-NH-(CH2)3-C6H5]: for the setting “read-out: IC50”, the IC50 worked out at 560 nM.

For the molecule `CCCCCCCCNC(=O)C(CC(C)C)C(=O)NO` (racemic) [Example 2, (±)-HONH-Mal(iBu)-NH-(CH2)7-CH3], the IC50 (read-out: IC50) turned out to be 300 nM.

On to `CC(C)CC(C(=O)NO)C(=O)NCCCc1ccccc1` (racemic) [Example 1, (±)-HONH-Mal(iBu)-NH-(CH2)3-C6H5], for which 620 nM corresponded to half-maximal inhibition (IC50).
